According to patent publication US20100130738A1 (priority 2007, published 2010):

Legend:
[1] = target: T1, PDE3A catalytic domain (PDE3Acat) (Homo sapiens, UniProt Q14432); assay: Phosphodiesterase inhibitory activity, recombinant PDE3Acat, [3H]cAMP; assay type: biochemical; settings: 30° C. 20 minutes, read-out: IC50 (μmol/L) PDE3
T1 construct: isolate the cDNA of a PDE3A catalytic domain; made in house; host or cells: Sf9 insect cells (baculovirus, Bac-to-Bac / Gateway)

[2] = system: histamine-induced bronchoconstriction in guinea pigs; assay: Histamine-induced bronchoconstriction reaction in guinea pigs; assay type: in vivo, guinea pig; settings: Cavia porcellus, iv, 0.5 min, compound 0.3 mg/kg i.v., measured 30 seconds after administration, histamine 12.5 μg/kg i.v., read-out: Inhibition rate (histamine-induced bronchoconstriction)
Procedure: Guinea pigs were anesthetized with pentobarbital (30 mg/kg, i.p.). A cannula for intravenous administration, a cannula for collecting blood and measuring blood pressure, and a tracheal cannula were inserted into the left external jugular vein, right internal carotid artery, and trachea, respectively. The guinea pigs were maintained on artificial respiration under conditions of 60 times/min and 10 mL/kg/stroke. The overflowing air from the side branch of the tracheal cannula was measured by a bronchospasm transducer (Ugo-Basile) and recorded on a computer via Power Lab (ADInstruments Japan). The guinea pigs were immobilized with gallamine (10 mg/kg, i.v.), and histamine (12.5 μg/kg, i.v.) was administered at 10-minute intervals. After the histamine-induced bronchoconstriction became stable, the compound (0.3 mg/kg, i.v.) was administered. The histamine-induced bronchoconstriction reaction was measured 30 seconds after the compound administration to examine the bronchoconstriction inhibitory activity of the compound. The bronchoconstriction was recorded as the airflow value, and the results were represented by the ratio of the maximum value of the histamine-induced airflow 30 seconds after administration to the maximum value of the airflow before administration. Also, the test compounds dissolved in DMSO were used. Further, the indications were as follows: inhibition rate≧90% (+++), 90%>inhibition rate≧80% (++), and 80%>inhibition rate≧60% (+).

PDE4Bcat = target: T2, PDE4Bcat (Homo sapiens, UniProt Q07343); assay: Phosphodiesterase inhibitory activity, recombinant PDE4Bcat, [3H]cAMP; assay type: biochemical; settings: 30° C. 20 minutes, read-out: IC50 (μmol/L) PDE4
T2 construct: made in house; host or cells: Sf9 insect cells (baculovirus, Bac-to-Bac / Gateway)
T2 sequence (Q07343 330-659 limits assumed): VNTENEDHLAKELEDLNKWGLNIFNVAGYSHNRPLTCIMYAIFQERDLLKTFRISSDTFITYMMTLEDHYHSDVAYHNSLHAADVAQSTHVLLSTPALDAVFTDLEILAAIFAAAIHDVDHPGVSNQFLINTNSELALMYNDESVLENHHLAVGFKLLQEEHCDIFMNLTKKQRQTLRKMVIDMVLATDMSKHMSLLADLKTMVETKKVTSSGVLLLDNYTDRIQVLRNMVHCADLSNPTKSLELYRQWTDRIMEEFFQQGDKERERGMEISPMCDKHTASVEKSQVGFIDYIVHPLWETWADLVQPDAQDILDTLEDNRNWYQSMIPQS

T1 sequence (Q14432 674-1093 limits assumed): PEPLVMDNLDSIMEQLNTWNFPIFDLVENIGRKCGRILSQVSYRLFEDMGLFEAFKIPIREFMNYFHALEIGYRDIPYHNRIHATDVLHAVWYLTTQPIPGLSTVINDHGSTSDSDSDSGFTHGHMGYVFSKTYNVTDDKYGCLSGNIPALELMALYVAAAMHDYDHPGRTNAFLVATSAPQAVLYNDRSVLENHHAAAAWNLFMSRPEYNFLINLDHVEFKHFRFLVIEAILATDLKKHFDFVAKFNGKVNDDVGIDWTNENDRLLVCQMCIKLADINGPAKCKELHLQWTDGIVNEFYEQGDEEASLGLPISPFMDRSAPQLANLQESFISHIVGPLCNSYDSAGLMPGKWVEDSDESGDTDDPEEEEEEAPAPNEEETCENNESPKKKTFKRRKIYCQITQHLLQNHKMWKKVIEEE

| IC50 [1] [µmol/L] | IC50 (PDE4Bcat) [µmol/L] | Compound | inhibition in vivo at 0.3 mg/kg [2] [%] |
| --- | --- | --- | --- |
| 0.01 to 0.1 | 0.01 to 0.1 | COc1ccc(C2=NN(CCCCOc3ccc(C4=NNC(=O)CC4C)cc3)C(=O)C2(C)C)c2ccc(C)nc12 (stereo not drawn) [Example 193, 5-(8-Methoxy-2-methylquinolin-5-yl)-2-[4-[4-(4-methyl-6-oxo-1,4,5,6-tetrahydropyridazin-3-yl)phenoxy]butyl]-4,4-dimethyl-4,4-dihydro-pyrazol-3-one] | ≥ 90 |
| 0.01 to 0.1 | 0.01 to 0.1 | CCc1ccc2c(C3=NN(CCCCOc4ccc(C5=NNC(=O)CC5C)cc4)C(=O)C3(C)C)ccc(OC)c2n1 (stereo not drawn) [Example 194, 5-(2-Ethyl-8-methoxyquinolin-5-yl)-2-[4-[4-(4-methyl-6-oxo-1,4,5,6-tetrahydropyridazin-3-yl)phenoxy]butyl]-4,4-dimethyl-2,4-dihydro-pyrazol-3-one] | ≥ 90 |
| < 0.01 | 0.1 to 1 | COc1ccc(C2=NN(CCCCOc3ccc(C4=NNC(=O)CC4C)cc3)C(=O)C2(C)C)c2ccc(C(C)C)nc12 (stereo not drawn) [Example 195, 5-(8-Methoxy-2-isopropylquinolin-5-yl)-2-[4-[4-(4-methyl-6-oxo-1,4,5,6-tetrahydropyridazin-3-yl)phenoxy]butyl]-4,4-dimethyl-2,4-dihydro-pyrazol-3-one] | – |
| < 0.01 | 0.01 to 0.1 | COc1ccc(C2=NN(CCCCOc3ccc(C4=NNC(=O)CC4C)c(F)c3F)C(=O)C2(C)C)c2ccc(C)nc12 (stereo not drawn) [Example 196, 2-[4-[2,3-Difluoro-4-(4-methyl-6-oxo-1,4,5,6-tetrahydropyridazin-3-yl)phenoxy]butyl]-5-(8-methoxy-2-methylquinolin-5-yl)-4,4-dimethyl-2,4-dihydro-pyrazol-3-one] | ≥ 90 |
| < 0.01 | 0.01 to 0.1 | CCc1ccc2c(C3=NN(CCCCOc4ccc(C5=NNC(=O)CC5)c(F)c4F)C(=O)C3(C)C)ccc(OC)c2n1 [Example 198, 5-(2-Ethyl-8-methoxyquinolin-5-yl)-2-[4-[2,3-difluoro-4-(6-oxo-1,4,5,6-tetrahydropyridazin-3-yl)phenoxy]butyl]-4,4-dimethyl-2,4-dihydro-pyrazol-3-one] | ≥ 90 |
| 0.01 to 0.1 | < 0.01 | CCc1ccc2c(C3=NN(CCCCOc4ccc(C5=NNC(=O)CC5)cc4F)C(=O)C3(C)C)ccc(OC)c2n1 [Example 199, 5-(2-Ethyl-8-methoxyquinolin-5-yl)-2-[4-[2-fluoro-4-(6-oxo-1,4,5,6-tetrahydropyridazin-3-yl)phenoxy]butyl]-4,4-dimethyl-2,4-dihydro-pyrazol-3-one] | ≥ 90 |
| 0.1 to 1 | 0.01 to 0.1 | CCc1ccc2c(C3=NN(CCCCOc4ccc(C5=NNC(=O)C5(C)C)cc4)C(=O)C3(C)C)ccc(OC)c2n1 [Example 201, 5-(2-Ethyl-8-methoxyquinolin-5-yl)-2-[4-[4-(4,4-dimethyl-5-oxo-4,5-dihydro-1H-pyrazol-3-yl)phenoxy]butyl]-4,4-dimethyl-2,4-dihydro-pyrazol-3-one] | – |
| 0.1 to 1 | 0.1 to 1 | CCc1ccc2c(C3=NN(CCCCOc4ccc(C5=NNC(=O)C5(C)C)cc4OC)C(=O)C3(C)C)ccc(OC)c2n1 [Example 204, 5-(2-Ethyl-8-methoxyquinolin-5-yl)-2-[4-[2-methoxy-4-(4,4-dimethyl-5-oxo-4,5-dihydro-1H-pyrazol-3-yl)phenoxy]butyl]-4,4-dimethyl-2,4-dihydro-pyrazol-3-one] | – |
| 0.01 to 0.1 | 0.1 to 1 | CCc1ccc2c(C3=NN(CCCCOc4ccc(C5=NNC(=O)CC5C)cc4OC)C(=O)C3(C)C)ccc(OC)c2n1 (stereo not drawn) [Example 208, 5-(2-Ethyl-8-methoxyquinolin-5-yl)-2-[4-[2-methoxy-4-(4-methyl-6-oxo-1,4,5,6-tetrahydropyridazin-3-yl)phenoxy]butyl]-4,4-dimethyl-2,4-dihydro-pyrazol-3-one] | – |
| < 0.01 | < 0.01 | COc1ccc(C2=NN(CCCCOc3ccc(C4=NNC(=O)CC4)c(F)c3F)C(=O)C2(C)C)c2cc(C(F)(F)F)oc12 [Example 216, 2-[4-[2,3-Difluoro-4-(6-oxo-1,4,5,6-tetrahydropyridazin-3-yl)phenoxy]butyl]-5-(7-methoxy-2-trifluoromethylbenzofuran-4-yl)-4,4-dimethyl-2,4-dihydro-pyrazol-3-one] | – |
| 0.1 to 1 | < 0.01 | COc1ccc(C2=NN(CCCCOc3ccc(C4=NNC(=O)C4(C)C)c(F)c3F)C(=O)C2(C)C)c2cc(C(F)(F)F)oc12 [Example 217, 2-[4-[2,3-Difluoro-4-(4,4-dimethyl-5-oxo-4,5-dihydro-1H-pyrazol-3-yl)phenoxy]butyl]-5-(7-methoxy-2-trifluoromethylbenzofuran-4-yl)-4,4-dimethyl-2,4-dihydro-pyrazol-3-one] | – |
| < 0.01 | < 0.01 | COc1ccc(C2=NN(CCCCOc3ccc(C4=NNC(=O)CC4C)c(F)c3F)C(=O)C2(C)C)c2cc(C(F)(F)F)oc12 (stereo not drawn) [Example 218, 2-[4-[2,3-Difluoro-4-(4-methyl-6-oxo-1,4,5,6-tetrahydropyridazin-3-yl)phenoxy]butyl]-5-(7-methoxy-2-trifluoromethylbenzofuran-4-yl)-4,4-dimethyl-2,4-dihydro-pyrazol-3-one] | – |
| < 0.01 | 0.01 to 0.1 | COc1ccc(C2=NN(CCCCOc3ccc(C4=NNC(=O)CC4C)c(F)c3F)C(=O)C2(C)C)c2nc(C(F)(F)F)nn12 (stereo not drawn) [Example 225, 2-[4-[2,3-Difluoro-4-(4-methyl-6-oxo-1,4,5,6-tetrahydropyridazin-3-yl)phenoxy]butyl]-5-(5-methoxy-2-trifluoromethyl-[1,2,4]triazolo[1,5-a]pyridin-8-yl)-4,4-dimethyl-2,4-dihydro-pyrazol-3-one] | – |
| < 0.01 | 0.01 to 0.1 | COc1ccc(C2=NN(CCCCOc3ccc(C4=NNC(=O)CC4)c(F)c3F)C(=O)C2(C)C)c2nc(C(F)(F)F)nn12 [Example 226, 2-[4-[2,3-Difluoro-4-(6-oxo-1,4,5,6-tetrahydropyridazin-3-yl)phenoxy]butyl]-5-(5-methoxy-2-trifluoromethyl-[1,2,4]triazolo[1,5-a]pyridin-8-yl)-4,4-dimethyl-2,4-dihydro-pyrazol-3-one] | – |
| 0.01 to 0.1 | 0.1 to 1 | COc1ccc(C2=NN(CCCCOc3ccc(C4=NNC(=O)C4(C)C)c(F)c3F)C(=O)C2(C)C)c2nc(C(F)(F)F)nn12 [Example 227, 2-[4-[2,3-Difluoro-4-(4,4-dimethyl-5-oxo-4,5-dihydro-1H-pyrazol-3-yl)phenoxy]butyl]-5-(5-methoxy-2-trifluoromethyl-[1,2,4]triazolo[1,5-a]pyridin-8-yl)-4,4-dimethyl-2,4-dihydro-pyrazol-3-one] | – |
| 0.01 to 0.1 | < 0.01 | COc1ccc(C2=NN(CCCCOc3ccc(C4=NNC(=O)C4(C)C)c(F)c3F)C(=O)C2(C)C)c2sc(C(F)(F)F)nc12 [Example 230, 2-[4-[2,3-Difluoro-4-(4,4-dimethyl-5-oxo-4,5-dihydro-1H-pyrazol-3-yl)phenoxy]butyl]-5-(4-methoxy-2-trifluoromethylbenzo[d]thiazol-7-yl)-4,4-dimethyl-2,4-dihydro-pyrazol-3-one] | – |
| < 0.01 | 0.1 to 1 | CCc1cc2c(C3=NN(CCCCOc4ccc(C5=NNC(=O)CC5C)c(F)c4F)C(=O)C3(C)C)ccc(OC)n2c1 (stereo not drawn) [Example 231, 5-(2-Ethyl-5-methoxyindolidin-8-yl)-2-[4-[2,3-difluoro-4-(4-methyl-6-oxo-1,4,5,6-tetrahydropyridazin-3-yl)phenoxy]butyl]-4,4-dimethyl-2,4-dihydro-pyrazol-3-one] | – |
| < 0.01 | 0.01 to 0.1 | CCc1cc2c(C3=NN(CCCCOc4ccc(C5=NNC(=O)CC5)c(F)c4F)C(=O)C3(C)C)ccc(OC)n2c1 [Example 232, 5-(2-Ethyl-5-methoxyindolidin-8-yl)-2-[4-[2,3-difluoro-4-(6-oxo-1,4,5,6-tetrahydropyridazin-3-yl)phenoxy]butyl]-4,4-dimethyl-2,4-dihydro-pyrazol-3-one] | – |
| 0.01 to 0.1 | 0.1 to 1 | CCc1cc2c(C3=NN(CCCCOc4ccc(C5=NNC(=O)C5(C)C)c(F)c4F)C(=O)C3(C)C)ccc(OC)n2c1 [Example 233, 5-(2-Ethyl-5-methoxyindolidin-8-yl)-2-[4-[2,3-difluoro-4-(4,4-dimethyl-5-oxo-4,5-dihydro-1H-pyrazol-3-yl)phenoxy]butyl]-4,4-dimethyl-2,4-dihydro-pyrazol-3-one] | – |
| < 0.01 | 0.01 to 0.1 | CCc1ccc2c(C3=NN(CCOc4ccc(C5=NNC(=O)CC5C)c(F)c4F)C(=O)C3(C)C)ccc(OC)c2n1 (stereo not drawn) [Example 242, 5-(2-Ethyl-8-methoxyquinolin-5-yl)-2-[4-[2,3-difluoro-4-(4-methyl-6-oxo-1,4,5,6-tetrahydropyridazin-3-yl)phenoxy]ethyl]-4,4-dimethyl-2,4-dihydro-pyrazol-3-one] | – |
